For series [1], the system named is 3D7-strain P. falciparum asexual parasites. Briefly: P. falciparum asexual growth inhibition assay (Pf GIA). The following applies: dose response confirmation; read-out: Pf asexual growth inhibition assays IC50. It is filed as cell-based, Plasmodium falciparum. The method in brief: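 Read-out was lactate dehydrogenase activity measured by absorbance at 650 nm after freezing and thawing, against 50 μM chloroquine and DMSO controls. Before that, asexual 3D7 cultures (0.25% parasitemia, 2% hematocrit) had 72 h dose-response compound exposure at 37°C in 5% CO2/5% O2/90% N2; three independent replicates averaged.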

For series [2], the system named is P. berghei ookinete development. Particulars: for % inhibition, Replicate A / % inhibition, Replicate B: primary screen at 1 μM.
Series [3] relates to HepG2 cells. Briefly: HepG2 cytotoxicity assay. Particulars: for Pb ODA (this manuscript) HepG2 cytoxicity: HepG2 cytotoxicity listed with the Pb ODA data set (this manuscript); for IC50: read-out: HepG2 cytotoxicity assay IC50, dose response confirmation. The method in brief:
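Here viability after a 48 h compound incubation (37°C, humidified 5% CO2) is measured by fluorescence and expressed as percent inhibition, with doxorubicin at 50 μM and DMSO as the bounding controls.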

[4] abbreviates: read-out: Pb Ookinete development assay IC50, dose response confirmation.
Setting [5] is: read-out: Pb ODA IC50, this manuscript.
Setting [6] is: unified HepG2 value across the three screens.
Where [7] appears, read: HepG2 values of the three screens unified.
Where [8] appears, read: read-out: Pb ODA (this manuscript) IC50, P. berghei ookinete development assay, this manuscript.

Where two headings read alike, the source gives them in different places. A value given as a limit tells only on which side of the number the result lay.

The results in this text go back to paper PMC6753678, “Fueling Open Innovation for Malaria Transmission-Blocking Drugs: Hundreds of Molecules Targeting Early Parasite Mosquito Stages” (Frontiers in Microbiology, 2019).

One may read the IC50 as the concentration that inhibits the measured activity by half.

Consider `COc1ccc2c(=O)c(I)c(C)[nH]c2c1` [TCMDC-138141], for which the IC50 in series [1] is less than 0.3 nM. For the same compound, in series [2], the “Is compound selective in assay? Pb ODA active?” value (“Is compound selective” below) is 0 (key: 1: YES; 0: NO); the “% inhibition, Replicate A” value is on record as 99.28%; the “% inhibition, Replicate B” value is listed as 96.77%. Moreover, in series [2] (setting [4]), the IC50 came out at 140 nM. Further, in series [3], the “Pb ODA (this manuscript) HepG2 cytoxicity” value turned out to be 0.0017 µM and the IC50 worked out at 1.7 nM.
As for `Cc1ccc2c(=O)c3cc(C)ccc3[nH]c2c1` [TCMDC-138194], the IC50 is 176 nM in series [1], 220 nM in series [2] (setting [5]), 217 nM in series [2] (setting [4]) and 63800 nM in series [3]. The “Is compound selective” value in series [2] (1: YES, 0: NO) is recorded as 1 (1: YES). Further, the “% inhibition, Replicate A” value in series [2] came out at 98.56%. Further, the “% inhibition, Replicate B” value in series [2] was determined as 107.67%. The “Unified cytotox” value in series [3] (setting [6]) is listed as 63.83 µM.
On to `COc1ccc(Cn2c(Nc3cccc(C(F)(F)F)c3)nc3cc(C(=O)NC(C)C)cnc32)cc1Cl` [TCMDC-138556], for which the IC50 in series [1] came to 1400 nM; in series [2] (setting [5]) it was 5440 nM; in series [2] (setting [4]), 5440 nM; in series [3], 51300 nM. For the same compound, the “Is compound selective” value in series [2] (1: YES, 0: NO) is 0 (0: NO). The “% inhibition, Replicate A” value in series [2] was determined as 25.40%. For the same compound, in series [2], the “% inhibition, Replicate B” value was 50.20%. Also, the “Unified cytotox” value in series [3] (setting [6]) came out at 51.29 µM.
As to `Nc1nc(N)c2c(ccc3c2ccn3CCCC(F)(F)F)n1` [TCMDC-138622], the IC50 was 105 nM in series [1], 6060 nM in series [2] (setting [5]), 6060 nM in series [2] (setting [4]) and 370 nM in series [3]. Also, the “Is compound selective” value in series [2] (1: YES, 0: NO) is listed as 0 (0: NO). The “% inhibition, Replicate A” value in series [2] amounted to 33.98%. Besides, the “% inhibition, Replicate B” value in series [2] turned out to be 53.93%. Further, the “HepG2 cytoxicity (Pb ODA, this manuscript)” value in series [3] amounted to 0.37 µM. The same compound yielded a Unified cytotox in series [3] (setting [7]) of 0.37 µM.
With `Nc1nc(N)c2c(ccc3c2ccn3CCCF)n1` [TCMDC-138623], the IC50 in series [1] came out at 122 nM; in series [2] (setting [5]), 1890 nM; in series [2] (setting [4]), 1890 nM; in series [3], 1100 nM. Besides, in series [2] (1: YES, 0: NO), the “Is compound selective” value is given as 0 (0: NO). The “% inhibition, Replicate A” value in series [2] came to 92.24%. Moreover, in series [2], the “% inhibition, Replicate B” value is 33.21%. In addition, in series [3], the “HepG2 cytoxicity (Pb ODA, this manuscript)” value is 1.10 µM. For the same compound, the Unified cytotox in series [3] (setting [7]) was 1.10 µM.
`CN1CCN(c2ccc(Nc3nccc(-c4cnn5ncccc45)n3)cc2Cl)CC1` [TCMDC-138688]: the IC50 in series [1] was found to be 929 nM; in series [2] (setting [5]) it was 1800 nM; in series [2] (setting [4]), 1800 nM; in series [3], 46800 nM. The “Is compound selective” value in series [2] (1: YES, 0: NO) is 1 (1: YES). Also, the “% inhibition, Replicate A” value in series [2] was found to be 69.14%. For the same compound, the “% inhibition, Replicate B” value in series [2] came to 64.46%. In addition, in series [3] (setting [6]), the “Unified cytotox” value is 46.77 µM.
In the case of `CC(=O)c1ccc(NC(=O)Nc2ccc(N(C)c3ccnc(Nc4cccc(CS(C)(=O)=O)c4)n3)cc2)cc1` [TCMDC-138736], the IC50 in series [1] amounted to 607 nM; in series [2] (setting [5]), 200 nM; in series [2] (setting [4]) it was 202 nM; in series [3], 2110 nM. Also, in series [2] (1: YES, 0: NO), the “Is compound selective” value is 1 (1: YES). Moreover, the “% inhibition, Replicate A” value in series [2] is 94.55%. In series [2], the “% inhibition, Replicate B” value came to 90.04%. Moreover, the “Unified cytotox” value in series [3] (setting [6]) is given as 2.11 µM.
As to `Cc1[nH]c(C)c(-c2ccc(Oc3ccc(OC(F)(F)F)cc3)cc2)c(=O)c1Br` [TCMDC-138826], the IC50 in series [1] came out at 274 nM. For the same compound, in series [2], the “Is compound selective” value is 0 (key: 1: YES; 0: NO); the “% inhibition, Replicate A” value came out at 67.69%; the “% inhibition, Replicate B” value came to 78.09%. Further, in series [2] (setting [8]), the IC50 was determined as 7890 nM. Further, the IC50 in series [2] (setting [4]) is 7890 nM. Moreover, in series [3], the “Pb ODA (this manuscript) HepG2 cytoxicity” value is 75.86 µM and the IC50 came out at 75900 nM.
Regarding `Cc1ccc(Nc2nc3cc(N(C)c4ccnc(Nc5cccc(CCS(C)(=O)=O)c5)n4)ccc3n2C)cc1.O=C(O)C(F)(F)F` [TCMDC-138853], the IC50 in series [1] amounted to 0.433 nM; in series [2] (setting [5]), 1880 nM; in series [2] (setting [4]), 1880 nM; in series [3] it was 3310 nM. The “Is compound selective” value in series [2] (1: YES, 0: NO) was 0 (0: NO). In addition, the “% inhibition, Replicate A” value in series [2] stood at 113.72%. In series [2], the “% inhibition, Replicate B” value was determined as 29.45%. The “Unified cytotox” value in series [3] (setting [6]) is reported as 3.31 µM.
With `Cc1[nH]c(C)c(-c2ccc(OCc3ccccc3)cc2)c(=O)c1Br` [TCMDC-138901], the half-inhibitory concentration (IC50) in series [1] worked out at 108 nM; in series [2] (setting [8]) it was 220 nM; in series [2] (setting [4]) it was 224 nM; in series [3], 100000 nM. Moreover, in series [2], the “Is compound selective” value is reported as 1 (key: 1: YES; 0: NO). Besides, in series [2], the “% inhibition, Replicate A” value was 91.81%. Also, in series [2], the “% inhibition, Replicate B” value is 92.28%. Besides, the “Pb ODA (this manuscript) HepG2 cytoxicity” value in series [3] is reported as 100.00 µM.
On to `OCCc1ccc(Nc2nccc(-c3nnc4ccccn34)n2)cc1` [TCMDC-138924], for which the IC50 in series [1] is less than 0.2 nM; in series [2] (setting [5]) it was 400 nM; in series [2] (setting [4]) it was 395 nM; in series [3], 100000 nM. Besides, in series [2] (1: YES, 0: NO), the “Is compound selective” value was 1 (1: YES). In addition, in series [2], the “% inhibition, Replicate A” value turned out to be 70.77%. Also, the “% inhibition, Replicate B” value in series [2] amounted to 81.57%. In addition, the “Unified cytotox” value in series [3] (setting [6]) is on record as 100.00 µM.
`Cc1[nH]c(C)c(-c2ccc(OCc3ccc(F)cc3)cc2)c(=O)c1Br` [TCMDC-138928]: the IC50 in series [1] was determined as 108 nM. Further, in series [2], the “Is compound selective” value is 1 (key: 1: YES; 0: NO); the “% inhibition, Replicate A” value was determined as 93.24%; the “% inhibition, Replicate B” value amounted to 106.54%. Moreover, the IC50 in series [2] (setting [8]) is 600 nM. The IC50 in series [2] (setting [4]) came to 595 nM. Moreover, in series [3], the “Pb ODA (this manuscript) HepG2 cytoxicity” value came to 100.00 µM and the concentration for half-maximal inhibition (IC50) came to 100000 nM.
Regarding `CCCOc1cc(OCCC)cc(-c2cc(=O)c3ccccc3[nH]2)c1` [TCMDC-138943], the IC50 came out at 76 nM in series [1], 550 nM in series [2] (setting [5]), 547 nM in series [2] (setting [4]) and 100000 nM in series [3]. Further, in series [2] (1: YES, 0: NO), the “Is compound selective” value was 1 (1: YES). The “% inhibition, Replicate A” value in series [2] is 86.05%. The “% inhibition, Replicate B” value in series [2] was found to be 83.39%. In addition, the “Unified cytotox” value in series [3] (setting [6]) worked out at 100.00 µM.
On to `COc1ccc2nc3cc(Cl)ccc3c(NCCN(C)C)c2c1` [TCMDC-139093], for which the IC50 in series [1] was determined as 48 nM. In series [2], the “Is compound selective” value was 0 (key: 1: YES; 0: NO); the “% inhibition, Replicate A” value is given as 73.14%; the “% inhibition, Replicate B” value is recorded as 67.89%. For the same compound, the IC50 in series [2] (setting [4]) came to 2200 nM. For the same compound, in series [3], the “Pb ODA (this manuscript) HepG2 cytoxicity” value is 15.85 µM and the IC50 is 15800 nM.
Turning to `CN1Cc2cc(NC(=O)/C=C/c3ccccc3Cl)ccc2C(C)(C)C1.Cl` [TCMDC-139315], the IC50 in series [1] came out at 679 nM; in series [2] (setting [5]), 560 nM; in series [2] (setting [4]), 563 nM; in series [3] it was 20400 nM. Also, the “Is compound selective” value in series [2] (1: YES, 0: NO) was 1 (1: YES). For the same compound, the “% inhibition, Replicate A” value in series [2] is listed as 114.62%. Further, the “% inhibition, Replicate B” value in series [2] is recorded as 130.13%. Besides, the “Unified cytotox” value in series [3] (setting [6]) turned out to be 20.42 µM.
